Laboratory results reported in patent US8546443B2, “Benzylic oxindole pyrimidines” (Boehringer Ingelheim International GmbH, priority 2010, dated 2013).

What was measured:
[1] = target: T1, cytoplasmic kinase domain of human IGF-1R (IGF-1R-GST) (Homo sapiens, UniProt P08069); assay: Insulin-like growth factor-1 receptor (IGF-1R) kinase assay (DELFIA); type: biochemical; conditions: IGF-1R-GST kinase activity, read-out: IGF1R IC50
T1 construct: cytoplasmic kinase domain of human IGF-1R (amino acids 964-1370); GST (glutathione-S-transferase); made in house; host or cells: High Five insect cells (Invitrogen)
Method in brief: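 GST-tagged IGF-1R cytoplasmic kinase domain phosphorylates pEY with biotinylated pEY for 40 min at RT; EDTA stop. Product captured on streptavidin, detected with europium anti-phosphotyrosine antibody by DELFIA time-resolved fluorescence; IC50 from inhibition curves.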

[2] = test system: TC-71 (Ewing's sarcoma) cells; assay: Cell proliferation assay, TC-71 (Alamar Blue); type: cell-based; conditions: 72 h with compound, EC50 ranges as class symbols
Method in brief: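 TC-71 Ewing's sarcoma cells, 2000/well in IMDM + 10% FCS, attached overnight, then exposed to serial compound dilutions in duplicate for 72 h at 37° C. Viability by Alamar Blue (7 h; fluorescence ex 544/em 590 nm); IC50 from sigmoidal variable-slope fit of normalized data.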

T1 sequence (P08069 964-1367 limits assumed): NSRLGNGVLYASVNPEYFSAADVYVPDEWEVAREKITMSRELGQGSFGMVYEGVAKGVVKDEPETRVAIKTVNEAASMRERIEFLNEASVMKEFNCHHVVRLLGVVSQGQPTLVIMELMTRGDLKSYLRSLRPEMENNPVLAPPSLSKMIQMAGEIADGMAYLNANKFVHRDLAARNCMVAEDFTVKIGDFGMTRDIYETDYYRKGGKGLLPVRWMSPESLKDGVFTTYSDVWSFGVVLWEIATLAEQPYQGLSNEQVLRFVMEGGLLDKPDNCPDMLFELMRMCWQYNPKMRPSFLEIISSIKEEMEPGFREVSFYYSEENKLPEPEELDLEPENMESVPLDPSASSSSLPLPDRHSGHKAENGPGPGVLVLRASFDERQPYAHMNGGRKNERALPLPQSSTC

Row | Structure (SMILES) | IC50 [1] | EC50 [2]
1 | Cc1c(Nc2ncc(Cl)c(NCc3cccc4c3C(C)(C)C(=O)N4)n2)ccc(C2CCN(CC(C)(C)O)CC2)c1C [Example I-339] | 2.1 nM | < 50 nM
2 | CC(C)(O)CN1CCC(c2ccc(Nc3ncc(Cl)c(NCc4cccc5c4C(C)(C)C(=O)N5)n3)c(OC(F)(F)F)c2)CC1 [Example I-340] | 11 nM | 50 to 250 nM
3 | CC(C)(O)CN1CCC(c2ccc(Nc3ncc(Cl)c(NCc4cccc5c4C(C)(C)C(=O)N5)n3)c3c2OCO3)CC1 [Example I-341] | 0.9 nM | < 50 nM
4 | CC(C)(O)CN1CCC(c2ccc(Nc3ncc(Cl)c(NCc4cccc5c4C(C)(C)C(=O)N5)n3)c(OC(F)F)c2)CC1 [Example I-342] | 3 nM | < 50 nM
5 | COCCN1CCC(c2ccc(Nc3ncc(C(F)(F)F)c(NCc4cccc5c4C(C)(C)C(=O)N5)n3)c(C)c2)CC1 [Example I-352] | 0.8 nM | < 50 nM
6 | COCCN1CCN(c2ccc(Nc3ncc(C(F)(F)F)c(NCc4cccc5c4C(C)(C)C(=O)N5)n3)c(OC)c2)CC1 [Example I-353] | 2 nM | < 50 nM
7 | Cc1cc(C2CCN(CCO)CC2)ccc1Nc1ncc(C(F)(F)F)c(NCc2cccc3c2C(C)(C)C(=O)N3)n1 [Example I-355] | 0.5 nM | 250 to 3000 nM
8 | COCCN1CCC[C@@H](c2ccc(Nc3ncc(Br)c(NCc4cccc5c4C(C)(C)C(=O)N5)n3)c(C)c2)C1 [Example I-362] | 0.3 nM | < 50 nM
9 | COCCN1CCC[C@H](c2ccc(Nc3ncc(Br)c(NCc4cccc5c4C(C)(C)C(=O)N5)n3)c(C)c2)C1 [Example I-363] | 2 nM | 50 to 250 nM
10 | CCc1cc(C2CCN(CCOC)CC2)ccc1Nc1ncc(Br)c(NCc2cccc3c2C(C)(C)C(=O)N3)n1 [Example I-367] | 3 nM | < 50 nM
11 | COCCN1CCN(c2ccc(Nc3ncc(Br)c(NCc4cccc5c4C(C)(C)C(=O)N5)n3)c(OC)c2)CC1 [Example I-369] | 2 nM | < 50 nM
12 | COc1cc(C2CCN(CC#N)CC2)ccc1Nc1ncc(Cl)c(NCc2cccc3c2C(C)(C)C(=O)N3)n1 [Example I-374] | 11 nM | 50 to 250 nM
13 | Cc1cc(C2CCN(CC#N)CC2)ccc1Nc1ncc(Cl)c(NCc2cccc3c2C(C)(C)C(=O)N3)n1 [Example I-375] | 9 nM | < 50 nM
14 | COCCN1CCC(c2ccc(Nc3ncc(Cl)c(NCc4cccc5c4C(C)(C)C(=O)N5)n3)cc2C)CC1 [Example I-376] | 0.6 nM | < 50 nM
15 | Cc1cc(C2CCN(CC(C)(C)O)CC2)ccc1Nc1ncc(Cl)c(NCc2cccc3c2C(C)(C)C(=O)N3)n1 [Example I-377] | 0.9 nM | < 50 nM
16 | CCc1cc(C2CCN(CC(C)(C)O)CC2)ccc1Nc1ncc(Cl)c(NCc2cccc3c2C(C)(C)C(=O)N3)n1 [Example I-378] | 6 nM | 50 to 250 nM
17 | CCc1cc(C2CCN(CCOC)CC2)ccc1Nc1ncc(Cl)c(NCc2cccc3c2C(C)(C)C(=O)N3)n1 [Example I-385] | 4 nM | 50 to 250 nM
18 | COCCN1CCN(c2ccc(Nc3ncc(Cl)c(NCc4cccc5c4C(C)(C)C(=O)N5)n3)c(OC)c2)CC1 [Example I-386] | 3 nM | < 50 nM
